System: γ-secretase
Assay: Screening for γ-secretase-modulating activity in SKNBE2 cells carrying APP 695-wild type
Type: cell-based
Details: SKNBE2 cells carrying the APP 695-wild type; read-out: EC 50 WTAPP

EC50 | Molecule
64 nM | CC(C)CC(C(=O)O)c1cc(NC2CCC(C(C)(C)C)CC2)cc(-c2ccc(C(F)(F)F)cc2)c1 (stereo not drawn) [Example 33, 2-[5-(4-tert-Butyl-cyclohexylamino)-4′-trifluoromethyl-biphenyl-3-yl]-4-methyl-pentanoic Acid]
330 nM | CC(C)CCC(Nc1cc(-c2ccc(C(F)(F)F)cc2)cc(C(CC(C)C)C(=O)O)c1)c1cc(F)cc(F)c1 (stereo not drawn) [Example 34, 2-{5-[1-(3,5-Difluoro-phenyl)-4-methyl-pentylamino]-4′-trifluoromethyl-biphenyl-3-yl}-4-methyl-pentanoic Acid]
510 nM | CC(C)CC(C(=O)O)c1cc(-c2ccc(C(F)(F)F)cc2)cc(C2CCCN(Cc3ccc(C(F)(F)F)cc3)C2)c1 (stereo not drawn) [Example 36, 4-Methyl-2-{4′-trifluoromethyl-5-[1-(4-trifluoromethyl-benzyl)-piperidin-3-yl]-biphenyl-3-yl}-pentanoic Acid]
220 nM | CC(C)CCC(Nc1cc(-c2ccc(C(F)(F)F)cc2)cc(C(CC(C)C)C(=O)O)c1)c1cc(C(F)(F)F)cc(C(F)(F)F)c1 (stereo not drawn) [Example 39, 2-{5-[1-(3,5-Bis-trifluoromethyl-phenyl)-4-methyl-pentylamino]-4′-trifluoromethyl-biphenyl-3-yl}-4-methyl-pentanoic Acid]
190 nM | CC(C)CCN(Cc1cc(F)cc(F)c1)c1cc(-c2ccc(C(F)(F)F)cc2)cc([C@@H](CC(C)C)C(=O)O)c1 [Example 40, 2-{5-[(3,5-Difluoro-benzyl)-(3-methyl-butyl)-amino]-4′-trifluoromethyl-biphenyl-3-yl}-4-methyl-pentanoic Acid]

Molecule | EC50
(S*)4-Methyl-2-(5-{1-[4-methyl-1-(4-trifluoromethyl-phenyl)-pentyl]-piperidin-3-yl}-4′-trifluoromethyl-biphenyl-3-yl)-pentanoic Acid [Example 38] | 450 nM

— US20090306392A1, “GSM INTERMEDIATES” (priority 2007, published 2009)
